From ChEMBL document CHEMBL3600303, “The N-Terminal T-T Motif of a Third-Generation HIV-1 Fusion Inhibitor Is Not Required for Binding Affinity and Antiviral Activity” (J Med Chem, 2015) come the findings set out here.

Data set [1] deals with Human immunodeficiency virus 1. In words: Antiviral activity against HIV1 NL4-3 pseudovirus infected in human TZM-bl cells assessed as inhibition of viral entry into cells after 48 hrs by single-cycle infection assay. Format: functional, organism-based. To be noted: Human immunodeficiency virus 1, NL4-3, TZM-bl.
Data set [2] deals with Envelope glycoprotein gp160 (Human immunodeficiency virus type 1 group M subtype B (isolate HXB2)(HIV-1)) (UniProt P04578). In words: Binding affinity to HIV-1 HXB2 gp41 N-terminal heptad repeat assessed as thermostability of compound after 30 mins by CD spectroscopic analysis. To be noted: Human immunodeficiency virus 1.
A short description of data set [3]: Thermostability of the compound in PBS assessed as melting temperature at 20 uM by CD spectroscopic analysis. Format: physicochemical. The conditions noted are these: buffer.
In data set [4] the target is Envelope glycoprotein gp160 (Human immunodeficiency virus type 1 group M subtype B (isolate HXB2)(HIV-1)) (UniProt P04578). In words: Binding affinity to HIV-1 HXB2 gp41 N-terminal heptad repeat assessed as thermostability of protein-compound complex at 10 uM after 30 mins by CD spectroscopic analysis. The conditions noted are these: Human immunodeficiency virus 1.
Data set [5] has as its system Human immunodeficiency virus 1. The data set is described as follows: Antiviral activity against wild type HIV1 NL4-3 infected in human TZM-bl cells assessed as inhibition of viral replication after 2 days by luciferase reporter gene assay. Format: functional, organism-based. The conditions noted are these: Human immunodeficiency virus 1, NL4-3, TZM-bl, 48 h. (In general: A reporter such as luciferase makes a cellular process visible.)

Data set [6] has as its system Human immunodeficiency virus 1. The data set is described as follows: Antiviral activity against HIV-1 ZM214M.15 pseudovirus infected in human TZM-bl cells assessed as inhibition of viral entry into cells after 48 hrs by single-cycle infection assay. Format: functional, organism-based. The conditions noted are these: Human immunodeficiency virus 1, ZM214M.15, TZM-bl.

The subject of data set [7] is Human immunodeficiency virus 1. In words: Antiviral activity against HIV-1 SF162 pseudovirus infected in human TZM-bl cells assessed as inhibition of viral entry into cells after 48 hrs by single-cycle infection assay. Format: functional, organism-based. The conditions noted are these: Human immunodeficiency virus 1, SF162, TZM-bl.
In data set [8] the test system is Human immunodeficiency virus 1. The data set is described as follows: Antiviral activity against HIV-1 SC42261.8 pseudovirus infected in human TZM-bl cells assessed as inhibition of viral entry into cells after 48 hrs by single-cycle infection assay. Format: functional, organism-based. To be noted: Human immunodeficiency virus 1, SC42261.8, TZM-bl.
Data set [9] addresses Envelope glycoprotein gp160 (Human immunodeficiency virus 1) (UniProt Q72502). In words: Binding affinity to HIV1 NL4-3 gp41 N-terminal heptad repeat G36D mutant after 30 mins by CD spectroscopic analysis.
Data set [10] shares this target. The data set is described as follows: Binding affinity to HIV1 NL4-3 gp41 N-terminal heptad repeat I37T mutant after 30 mins by CD spectroscopic analysis.
The test system of data set [11] is Envelope glycoprotein gp160 (Human immunodeficiency virus 1), Q72502 [V38A]. In words: Binding affinity to HIV1 NL4-3 gp41 N-terminal heptad repeat V38A mutant after 30 mins by CD spectroscopic analysis.
Data set [12] addresses Envelope glycoprotein gp160 (Human immunodeficiency virus 1) (UniProt Q72502). The data set is described as follows: Binding affinity to HIV1 NL4-3 gp41 N-terminal heptad repeat Q40H mutant after 30 mins by CD spectroscopic analysis.
For data set [13] the target is unchanged. The data set is described as follows: Binding affinity to HIV1 NL4-3 gp41 N-terminal heptad repeat N43K mutant after 30 mins by CD spectroscopic analysis.
The target is the same in data set [14]. In words: Binding affinity to HIV1 NL4-3 gp41 N-terminal heptad repeat I37T/N43K double mutant after 30 mins by CD spectroscopic analysis.
For data set [15] the target is unchanged. In words: Binding affinity to HIV1 NL4-3 gp41 N-terminal heptad repeat V38A/N42T double mutant after 30 mins by CD spectroscopic analysis.
For data set [16], the target named is Envelope glycoprotein gp160 (Human immunodeficiency virus type 1 group M subtype B (isolate HXB2)(HIV-1)) (UniProt P04578). In words: Binding affinity to HIV-1 HXB2 gp41 N-terminal heptad repeat assessed as increase in 6-helix bundle thermostability at 10 uM after 30 mins by CD spectroscopic analysis. The conditions noted are these: Human immunodeficiency virus 1.

The test system of data set [17] is Serum. In words: Metabolic stability in Sprague-Dawley rat serum at 4 mg/kg, ip measured at 0.5 to 4 hrs post dose. To be noted: in vivo. Format: ADME, organism-based.
Data set [18] has as its target Envelope glycoprotein gp160 (Human immunodeficiency virus type 1 group M subtype B (isolate HXB2)(HIV-1)) (UniProt P04578). In words: Binding affinity to HIV-1 HXB2 gp41 N-terminal heptad repeat assessed as thermostability of compound at 10 uM after 30 mins by CD spectroscopic analysis. The conditions noted are these: Human immunodeficiency virus 1.
Data set [19] has as its target Envelope glycoprotein gp160 (Human immunodeficiency virus type 1 group M subtype B (isolate HXB2)(HIV-1), UniProt P04578). In words: Binding affinity to HIV-1 HXB2 gp41 N-terminal heptad repeat assessed as inhibition of 6-helix bundle formation after 30 mins by ELISA. Also noted: species or system Human immunodeficiency virus 1. On the technique in general: An ELISA detects its analyte on a solid surface through an enzyme-linked reagent.

Data set [20] has as its system Human immunodeficiency virus 1. In words: Antiviral activity against wild type HIV1 NL4-3 infected in human TZM-bl cells assessed as inhibition of viral entry into cells after 48 hrs by single-cycle infection assay. Format: functional, organism-based. The conditions noted are these: Human immunodeficiency virus 1, NL4-3, TZM-bl.
Data set [21] concerns Human immunodeficiency virus 1. The data set is described as follows: Antiviral activity against ENF-resistant HIV1 NL4-3 harboring gp41 N-terminal heptad repeat D36G mutant infected in human TZM-bl cells assessed as inhibition of viral entry into cells after 48 hrs by single-cycle infection assay. Format: functional, organism-based.
Data set [22] deals with Human immunodeficiency virus 1. In words: Antiviral activity against ENF-resistant HIV1 NL4-3 harboring gp41 N-terminal heptad repeat I37T mutant infected in human TZM-bl cells assessed as inhibition of viral entry into cells after 48 hrs by single-cycle infection assay. Format: functional, organism-based.
The subject of data set [23] is Human immunodeficiency virus 1. The data set is described as follows: Antiviral activity against ENF-resistant HIV1 NL4-3 harboring gp41 N-terminal heptad repeat V38A mutant infected in human TZM-bl cells assessed as inhibition of viral entry into cells after 48 hrs by single-cycle infection assay. Format: functional, organism-based.
Data set [24] has as its system Human immunodeficiency virus 1. The data set is described as follows: Antiviral activity against ENF-resistant HIV1 NL4-3 harboring gp41 N-terminal heptad repeat V38M mutant infected in human TZM-bl cells assessed as inhibition of viral entry into cells after 48 hrs by single-cycle infection assay. Format: functional, organism-based.
The subject of data set [25] is Human immunodeficiency virus 1. In words: Antiviral activity against ENF-resistant HIV1 NL4-3 harboring gp41 N-terminal heptad repeat Q40H mutant infected in human TZM-bl cells assessed as inhibition of viral entry into cells after 48 hrs by single-cycle infection assay. Format: functional, organism-based.
The subject of data set [26] is Human immunodeficiency virus 1. In words: Antiviral activity against ENF-resistant HIV1 NL4-3 harboring gp41 N-terminal heptad repeat N43K mutant infected in human TZM-bl cells assessed as inhibition of viral entry into cells after 48 hrs by single-cycle infection assay. Format: functional, organism-based.
The subject of data set [27] is Human immunodeficiency virus 1. The data set is described as follows: Antiviral activity against ENF-resistant HIV1 NL4-3 harboring gp41 N-terminal heptad repeat D36S/V38M double mutant infected in human TZM-bl cells assessed as inhibition of viral entry into cells after 48 hrs by single-cycle infection assay. Format: functional, organism-based.
Data set [28] concerns Human immunodeficiency virus 1. In words: Antiviral activity against ENF-resistant HIV1 NL4-3 harboring gp41 N-terminal heptad repeat I37T/N43K double mutant infected in human TZM-bl cells assessed as inhibition of viral entry into cells after 48 hrs by single-cycle infection assay. Format: functional, organism-based.
The subject of data set [29] is Human immunodeficiency virus 1. In words: Antiviral activity against ENF-resistant HIV1 NL4-3 harboring gp41 N-terminal heptad repeat V38A/N42T double mutant infected in human TZM-bl cells assessed as inhibition of viral entry into cells after 48 hrs by single-cycle infection assay. Format: functional, organism-based.
Data set [30] has as its system Human immunodeficiency virus 1. In words: Ratio of IC50 for ENF-resistant HIV1 NL4-3 harboring gp41 N-terminal heptad repeat D36G mutant to IC50 for wild type HIV1 NL4-3. Format: functional.
Data set [31] has as its system Human immunodeficiency virus 1. The data set is described as follows: Ratio of IC50 for ENF-resistant HIV1 NL4-3 harboring gp41 N-terminal heptad repeat I37T mutant to IC50 for wild type HIV1 NL4-3. Format: functional.
In data set [32] the test system is Human immunodeficiency virus 1. The data set is described as follows: Ratio of IC50 for ENF-resistant HIV1 NL4-3 harboring gp41 N-terminal heptad repeat V38A mutant to IC50 for wild type HIV1 NL4-3. Format: functional.
The subject of data set [33] is Human immunodeficiency virus 1. In words: Ratio of IC50 for ENF-resistant HIV1 NL4-3 harboring gp41 N-terminal heptad repeat V38M mutant to IC50 for wild type HIV1 NL4-3. Format: functional.
Data set [34] has as its system Human immunodeficiency virus 1. In words: Ratio of IC50 for ENF-resistant HIV1 NL4-3 harboring gp41 N-terminal heptad repeat Q40H mutant to IC50 for wild type HIV1 NL4-3. Format: functional.
Data set [35] has as its system Human immunodeficiency virus 1. In words: Ratio of IC50 for ENF-resistant HIV1 NL4-3 harboring gp41 N-terminal heptad repeat N43K mutant to IC50 for wild type HIV1 NL4-3. Format: functional.
Data set [36] concerns Human immunodeficiency virus 1. The data set is described as follows: Ratio of IC50 for ENF-resistant HIV1 NL4-3 harboring gp41 N-terminal heptad repeat D36S/V38M double mutant to IC50 for wild type HIV1 NL4-3. Format: functional.
In data set [37] the test system is Human immunodeficiency virus 1. In words: Ratio of IC50 for ENF-resistant HIV1 NL4-3 harboring gp41 N-terminal heptad repeat I37T/N43K double mutant to IC50 for wild type HIV1 NL4-3. Format: functional.
The subject of data set [38] is Human immunodeficiency virus 1. The data set is described as follows: Ratio of IC50 for ENF-resistant HIV1 NL4-3 harboring gp41 N-terminal heptad repeat V38A/N42T double mutant to IC50 for wild type HIV1 NL4-3. Format: functional.
Data set [39] has as its system Human immunodeficiency virus 1. In words: Antiviral activity against wild type HIV-1. Format: functional, organism-based.
Data set [40] concerns Human immunodeficiency virus 1. The data set is described as follows: Antiviral activity against HIV-1 pseudovirus harboring Q66R/N126K double mutant. Format: functional, organism-based.

Calls of active or inactive are those of the source. The rule behind the calls is not given here.

By IC50 is commonly meant the midpoint of a concentration-inhibition curve. With H-MTWEAWDRAIAEYAARIEALIR-OH, the half-inhibitory concentration (IC50) in [1] stood at 86.7 nM. The Tm in data set [2] was found to be 68.2 °C.
Consider “H-MTWEAWDRAIAEYAARIEALIRAAQEQQEKNEAALREL-OH”, for which the Stability entry is recorded as “Stable” in data set [3] and “Unstable” in [17]. Moreover, in [4], the Tm is 88.1 °C. In addition, the IC50 in data set [1] is 0.46 nM; in data set [5], 0.25 nM; in data set [6], 0.74 nM; in [7] it was 4.98 nM; in [8], 1.65 nM. Moreover, the result in data set [9], in data set [10], in data set [11], in data set [12], in data set [13] and in data set [14] was Active. Further, the result in data set [15] and in data set [16] was Active.
Consider H-MTWEEWDKKIEEYTKKIEELI-OH, for which the IC50 in data set [1] is 4.26 nM; in data set [5], 3.13 nM. The Tm in [18] came to 76.2 °C.
The matching figures for H-MTWEEWDKKIEEYTKKIEELIKKS-OH: 1.29 nM, 0.9 nM and 78.2 °C.
In the case of H-TTWEAWDRAIAEYAARIEALIR-OH, in [1], the IC50 amounted to 955 nM. The Tm in data set [2] amounted to 59.1 °C.
In the case of H-TTWEEWDKKIEEYTKKIEELI-OH, the IC50 in [1] is 18.9 nM; in data set [5], 17.4 nM. Also, the Tm in data set [18] was 66.2 °C.
The matching figures for H-TTWEEWDKKIEEYTKKIEELIKKS-OH: 46.8 nM, 26.1 nM and 66.3 °C.
On to “H-WEAWDRAIAEYAARIEALIRAAQEQQEKNEAALREL-OH”, for which the Tm in data set [3] stood at 46.1 °C; in data set [4] it was 81.2 °C. The IC50 in data set [1] was 1.07 nM; in data set [5] it was 0.48 nM; in data set [6] it was 0.73 nM; in data set [7], 5.75 nM; in data set [8], 1.67 nM; in data set [19] it was 77.4 nM. Besides, the concentration for half-maximal inhibition (IC50) in [20] is 1.1 nM; in [21], 1.9 nM; in [22], 2 nM; in data set [23], 1.4 nM; in [24], 1.7 nM; in data set [25], 1.2 nM. Besides, the IC50 in data set [26] stood at 2.1 nM; in data set [27] it was 1 nM; in data set [28], 1.9 nM; in data set [29] it was 0.6 nM; in data set [39], 1.34 nM; in data set [40], 7 nM. In addition, the “Ratio IC50” value is reported as 1.7 in [30]; 1.8 in data set [31]; 1.3 in data set [32]; 1.6 in data set [33]; 1.1 in data set [34]; 1.9 in [35]. For the same substance, the results for the “Ratio IC50” value in [36], in [37] and in [38] were 0.9, 1.7 and 0.6, respectively. Moreover, the outcome in data set [9], in [10], in [11], in data set [12], in [13] and in data set [14] was Active. Further, the result in data set [15] was Active. The Stability result in data set [17] is “Stable”.
